From paper PMC11306024, “Novel metabolite madeirone and neomarinone extracted from Streptomyces aculeoletus as marine antibiofilm and antifouling agents” (Frontiers in Chemistry, 2024)

Legend:
P. inhibens = assay: Antibacterial activity (growth inhibition, OD600); format: cell-based, Phaeobacter inhibens DSM 17395; details: 48 h
Procedure: (§1) To assess antimicrofouling activity, we selected five marine bacterial species as models: Marinobacter hydrocarbonoclasticus DSM 8798 (ATCC 49840), C. marina DSM 4741, Phaeobacter inhibens DSM 17,395, Pseusooceanicola batsensis DSM 15,984, and Micrococcus luteus DSM 20030 (ATCC 4698) ([Michael et al., 2016]). These strains, sourced from DSMZ (Leibniz Institute DSMZ—German Collection of Microorganisms and Cell Cultures), were cultured in liquid marine broth (Carl Roth GmbH, Karlsruhe, Germany) with agitation at 180 rpm or on agar-supplemented marine broth. Incubation temperatures were set at 28°C for M. hydrocarbonoclasticus and Cobetia marina, 30°C for P. inhibens and P. batsensis, while M. luteus was maintained at 37°C in Brain Heart Infusion broth (BHI, Becton Dickinson, GmbH, Heidelberg, Germany) under similar agitation conditions.
(§2) The antibacterial efficacy of compounds (1) and (2) was assessed in 96-well polystyrene flat-bottom microplates (Nunclon Delta Surface, Thermo Scientific, Roskilde, Denmark) following established procedures ([Bauermeister et al., 2019]). In the initial screening, bacterial overnight cultures were diluted to an optical density (OD600nm) of 0.2 and incubated statically at appropriate temperatures. The cultures were treated with the following final concentrations per well: 31.25, 15.60, 7.81, 3.91, 1.95, and 0.98 μg/mL (2-fold serial dilutions) of the compounds, solubilized in DMSO, or left untreated. After 24 h (M. hydrocarbonoclasticus, C. marina) or 48 h (P. batsensis, P. inhibens, M. luteus) incubation, optical density at 600 nm (OD600) was measured using a Molecular Devices Spectra Max 190. Growth inhibition percentages were calculated relatively to untreated bacterial species, using DMSO as a negative control. CuSO4 (0.16 μg/mL), a recognized antifouling agent, was used as positive control. All assays were conducted in triplicate, and the results represent the mean and standard error of the mean (SEM). Statistical analysis was carried out using GraphPad Prism 8.0.2 (San Diego, CA, United States), employing one-way ANOVA followed by Dunnett’s multiple comparisons test against the negative control.

Aliivibrio fischeri = assay: Inhibition of bioluminescence (ISO 11348-3 micro adaptation); format: cell-based; details: Aliivibrio fischeri
Procedure: (§3) The in vivo evaluation of compounds (1) and (2) for acute toxicity was performed towards marine bacterium Aliivibrio fischeri, and planktonic crustacean Daphnia magna. The chronic ecotoxicity tests were evaluated using algae Pseudokirchneriella subcapitata and Phaeodactylum tricornutum.
The inhibition of bioluminescence of the marine bacterium A. fischeri, were studied following a micro adaptation of the standard procedure ISO 11348-3 (“Water Quality-Determination of the inhibitory effect of water samples on the light emission of Vibrio fischeri - Luminescent bacteria test–using freeze-dried bacteria method”). Briefly, frozen lyophilized bacterial cells (Abraxis, Warminster, PA, United States) were reconstituted in Reconstitution Solution, supplied by the manufacturer of the Abratox kit (Abraxis). Madeirone (1) and neomarinone (2) were dissolved in DMSO and tested at the concentrations of 100, 50, 25, 12.5, 6.25, 3.13, and 1.56 μg/mL. The emitted luminescence was measured using a luminometer at time 0 min and at different exposure times (5, 15 and 30 min) and the percentage of inhibition of bioluminescence was determined. Each experiment was performed in duplicate and the results of three independent experiments with <10% SD are presented. Phenol was used as a positive control.

M. hydrocarbonoclasticus = assay: Antibacterial activity (growth inhibition, OD600); format: cell-based, Marinobacter hydrocarbonoclasticus DSM 8798; details: 24 h
Procedure: as §1, §2

M. luteus = assay: Antibiofilm activity (inhibition of biofilm formation); format: cell-based, Micrococcus luteus DSM 20030
Procedure: as §1
The antibiofilm potential of compounds (1) and (2) against the five marine bacterial species was investigated in 96-well polystyrene flat-bottom microplates (Nunclon Delta Surface, Thermo Scientific, Roskilde, Denmark), as described previously ([Bauermeister et al., 2019]; [Pereira et al., 2020]). In the initial screening, bacterial overnight cultures were diluted to an OD600 of 0.2 and incubated statically at appropriate temperatures. The cultures were tested at 31.25, 15.60, 7.81, 3.91, 1.95, 0.98 μg/mL concentrations (2-fold serial dilutions) of compounds (1) and (2), solubilized in DMSO, or left untreated. After 24 h (M. hydrocarbonoclasticus, C. marina) or 48 h (P. batsensis, P. inhibens, M. luteus) incubation, OD600 was measured. The planktonic cells and media were discarded, and the wells were washed twice with deionized water. Biofilms were fixed, stained, and quantified by measuring the OD600 after solubilization with acetic acid. Biofilm inhibition percentages were calculated relative to untreated bacterial species, using DMSO as a negative control and CuSO4 (0.16 μg/mL), as a positive control. All assays were performed in triplicate, and the results represent the mean and standard error of the mean (SEM). Statistical analysis was conducted using GraphPad Prism 8.0.2, employing one-way ANOVA followed by Dunnett’s multiple comparisons test against the negative control.

[1] = system: Phaeodactylum tricornutum; assay: Algal growth inhibition test (OECD 201, ISO-10253); format: cell-based
Procedure: as §3
Freshwater and marine algal growth inhibition was assessed using P. subcapitata and P. tricornutum according to OECD Guideline 201 procedures (“Alga, Growth Inhibition Test”), ISO-8692 (“Water quality–Fresh water algal growth inhibition test with unicellular green algae”) and ISO-10253. Briefly, the algae cells were de-immobilized from algal beads using Matrix dissolving medium (Microbiotests), according to the manufacturer’s instructions, and grown in flasks containing algal culturing medium which was prepared following the OECD Guideline 201 and ISO-8692. Flasks with algae were kept for 7 days under light with orbital agitation. When the algae culture had sufficient cells, as verified by the optical density at 670 nm, these were tested at an initial cell density of 1 × 10^6 cells/mL in algal culturing medium. Madeirone (1) and neomarinone (2) were dissolved in DMSO and tested at the concentrations of 100, 50, 25, 12.5, 6.25, 3.13, and 1.56 μg/mL. The algae were cultured in microplates in triplicate and were kept for 4 days under light with orbital agitation. […] Each experiment was performed in triplicate and the results of two independent experiments with <10% SD are presented. Growth inhibition calculations were performed using cell numbers (biomass), as determined by a calibration line. Potassium dichromate (K2Cr2O7) was used as a positive control.

Row | SMILES | Growth inhibition (%) P. inhibens (P. inhibens; 0.98 µg/mL) | Growth inhibition (%) P. inhibens (P. inhibens; 1.95 µg/mL) | Growth inhibition (%) P. inhibens (P. inhibens; 3.91 µg/mL) | Growth inhibition (%) P. inhibens (P. inhibens; 7.81 µg/mL) | Growth inhibition (%) P. inhibens (P. inhibens; 15.60 µg/mL) | Inhibition (%) A. fischeri (bioluminescence) (Aliivibrio fischeri; 50 µg/mL) [%] | Inhibition (%) A. fischeri (bioluminescence) (Aliivibrio fischeri; 100 µg/mL) [%] | Growth inhibition (%) M. hydrocarbonoclasticus (M. hydrocarbonoclasticus; 0.98 µg/mL) | Growth inhibition (%) M. hydrocarbonoclasticus (M. hydrocarbonoclasticus; 1.95 µg/mL) | Growth inhibition (%) M. hydrocarbonoclasticus (M. hydrocarbonoclasticus; 3.91 µg/mL) | Growth inhibition (%) M. hydrocarbonoclasticus (M. hydrocarbonoclasticus; 7.81 µg/mL) | Growth inhibition (%) M. hydrocarbonoclasticus (M. hydrocarbonoclasticus; 15.60 µg/mL) | Biofilm inhibition (%) M. luteus (M. luteus; 0.98 µg/mL, 48 h) | Biofilm inhibition (%) M. luteus (M. luteus; 1.95 µg/mL, 48 h) | inhibition at 31.25 µg/mL (M. luteus; Micrococcus luteus, 48 h) [%] | Inhibition (%) P. tricornutum (growth) ([1]; 25 µg/mL) [%] | Inhibition (%) P. tricornutum (growth) ([1]; 50 µg/mL) [%] | Inhibition (%) P. tricornutum (growth) ([1]; 100 µg/mL) [%] | also measured
1 | CC1=CCC[C@@H](C)[C@]1(C)CC[C@@]1(C)c2c(O)cc3c(c2O[C@@H]1C)C(=O)C=C(CO)C3=O (relative stereo) [compound 1, madeirone] | N.I. | N.I. | N.I. | N.I. | N.I. | 15.1 | 49.2 | N.I. | N.I. | N.I. | N.I. | N.I. | N.I. | N.I. | 35.3 ± 0.2 | 45.7 | 58.0 | 86.9 | inhibition at 31.25 µg/mL (P. inhibens; Phaeobacter inhibens, 31.25 µg/mL): 24.3 ± 0.5%; Growth inhibition (%) M. hydrocarbonoclasticus (M. hydrocarbonoclasticus; 31.25 µg/mL): N.I.; Biofilm inhibition (%) M. luteus (M. luteus; 3.91 µg/mL, 48 h): N.I.; Biofilm inhibition (%) M. luteus (M. luteus; 7.81 µg/mL, 48 h): N.I.; Biofilm inhibition (%) M. luteus (M. luteus; 15.60 µg/mL, 48 h): N.I.
2 | CC1=CCC[C@@H](C)[C@]1(C)CC[C@@]1(C)c2c(O)cc3c(c2O[C@@H]1C)C(=O)C(C)=C(O)C3=O [compound 2, neomarinone] | N.I. | N.I. | N.I. | N.I. | N.I. | 25.0 | 37.3 | N.I. | N.I. | N.I. | N.I. | N.I. | N.I. | N.I. | 33.3 ± 7.3 | 38.5 | 40.8 | 77.7 | Growth inhibition (%) P. inhibens (P. inhibens; 31.25 µg/mL): N.I.; inhibition at 31.25 µg/mL (M. hydrocarbonoclasticus; Marinobacter nauticus, 31.25 µg/mL): 4.2 ± 0.8%; Biofilm inhibition, up to (highest over tested concentrations) M. luteus (M. luteus; 0.98-31.25 µg/mL tested): up to 40%; inhibition at 3.91 µg/mL (M. luteus; Micrococcus luteus, 3.91 µg/mL, 48 h): 7.8 ± 16.9%; inhibition at 7.81 µg/mL (M. luteus; Micrococcus luteus, 7.81 µg/mL, 48 h): 29.9 ± 12.4%; inhibition at 15.6 µg/mL (M. luteus; Micrococcus luteus, 15.60 µg/mL, 48 h): 41 ± 8.2%; Inhibition (%) P. tricornutum (growth) ([1]; 12.5 µg/mL): 26.5%
